{"source": "patent US11752154B2", "about": "“Pharmaceutical compositions comprising sepiapterin and uses thereof” (PTC Therapeutics MP, Inc., priority 2017, dated 2023)", "key": {"[1]": {"assay": "Stability analysis of salts and/or co-crystals of sepiapterin (Example 7)", "type": "physicochemical", "conditions": "25° C./60% RH and 40° C./75% RH, two weeks", "method": "The stability of the prepared salts and/or co-crystals was analyzed after […] at 25° C. and 60% relative humidity and 40° C. and 75% relative humidity. […] None of the phosphate, tartrate, or nicotinate salts and/or co-crystals underwent a form change during the stability testing, and each of them retained greater than 97% purity over the two weeks of the study. In fact, both the tartrate and nicotinate both retained greater than 99% purity."}, "[2]": {"assay": "Kinetic solubility and disproportionation of sepiapterin salts and/or co-crystals in water and Medisca Oral Mix (Example 8)", "type": "physicochemical", "conditions": "for solubility at 1 hr / solubility at 4 hr / solubility at 24 hr: thermodynamic from solid; for solubility at 1 hr / solubility at 4 hr / solubility at 24 hr / Form change / Solubility / Purity (area %): RT; for solubility at 1 hr / solubility at 4 hr / solubility at 24 hr / Solubility: calculated using freebase, target conc. ~7 mg/mL; for Form change: residual solids by XRPD; for form of residual solids: water and Medisca Oral Mix, after 1 hour; for Purity (area %): supernatant, for reference only", "method": "The kinetic solubility was evaluated for nicotinate, phosphate, L-tartrate, and fumarate salts and/or co-crystals of sepiapterin in water and Medisca Oral Mix. X-ray powder diffraction (XRPD) was performed for the residual solids to identify form change/disproportionation. Solids were suspended into the media with target conc. of ˜7 mg/mL (calculated by freebase). The suspensions were agitated on a rolling incubator at 25 rpm for 1, 4 and 24 hrs. At each time point, 1 mL of the suspension was pipetted out for centrifugation at 10000 rpm (2 min) and filtration through 0.45 μm membrane to obtain supernatant for HPLC solubility and pH tests, the residual solids were analyzed by XRPD."}, "[3]": {"assay": "Determination of BH4 and sepiapterin levels in plasma, liver, kidney and urine after sepiapterin or BH4 (Example 4)", "type": "in vivo", "conditions": "for kidney, liver and urine exposure to BH4 versus dose level: 20, 60 or 180 mg/kg", "method": "Animals were administered the test items, sepiapterin or BH4, at dose levels of 20, 60 or 180 mg/kg. Blood, liver, kidney and urine samples (where possible) were collected from 3 animals/timepoints/group on the day of dosing at 0 (pre-dose, controls only), 0.5, 1, 2, 4, and 8 hours post-dose. Samples were assayed for sepiapterin or BH4 (not quantified in plasma) and non-compartmental pharmacokinetic analysis was performed."}, "[4]": {"conditions": "Medisca Oral Mix, 1 hr, listed as L-tartrate salt and/or co-crystal"}, "[5]": {"conditions": "Water, 1 hr, listed as L-tartrate salt and/or co-crystal"}, "[6]": {"conditions": "Water, 4 hr, listed as L-tartrate salt and/or co-crystal"}, "[7]": {"conditions": "Water, 24 hr, listed as L-tartrate salt and/or co-crystal"}, "[8]": {"conditions": "Medisca Oral Mix, 24 hr, listed as phosphate salt and/or co-crystal"}, "[9]": {"conditions": "Water, 1 hr, listed as phosphate salt and/or co-crystal"}, "[10]": {"conditions": "Water, 4 hr, listed as phosphate salt and/or co-crystal"}, "[11]": {"conditions": "Water, 24 hr, listed as phosphate salt and/or co-crystal"}}}
{"molecule": "C[C@H](O)C(=O)C1=Nc2c(nc(N)[nH]c2=O)NC1", "note": "[Nicotinate]", "values": [{"measurement": "form change during the stability testing", "setting": "[1]", "value": "None"}, {"measurement": "solubility at 1 hr", "setting": "[2]; Medisca Oral Mix, aqueous with cosolvent or surfactant or cyclodextrin, 1 hr", "value": 2600, "unit": "µg/mL"}, {"measurement": "solubility at 4 hr", "setting": "[2]; Medisca Oral Mix, aqueous with cosolvent or surfactant or cyclodextrin, 4 hr", "value": 3100, "unit": "µg/mL"}, {"measurement": "solubility at 24 hr", "setting": "[2]; Medisca Oral Mix, aqueous with cosolvent or surfactant or cyclodextrin, 24 hr", "value": 3500, "unit": "µg/mL"}, {"measurement": "Form change", "setting": "[2]; Medisca Oral Mix, 1 hr, ** = low crystallinity, listed as nicotinate salt and/or co-crystal", "value": "Yes"}, {"measurement": "Form change", "setting": "[2]; Medisca Oral Mix, 4 hr, ** = low crystallinity, listed as nicotinate salt and/or co-crystal", "value": "Yes"}, {"measurement": "Form change", "setting": "[2]; Medisca Oral Mix, 24 hr, ** = low crystallinity, listed as nicotinate salt and/or co-crystal", "value": "Yes"}, {"measurement": "Form change", "setting": "[2]; Water, 1 hr, listed as nicotinate salt and/or co-crystal", "value": "Yes"}, {"measurement": "Form change", "setting": "[2]; Water, 4 hr, listed as nicotinate salt and/or co-crystal", "value": "Yes"}, {"measurement": "Form change", "setting": "[2]; Water, 24 hr, listed as nicotinate salt and/or co-crystal", "value": "Yes"}, {"measurement": "form of residual solids", "setting": "[2]", "value": "converted to freebase"}, {"measurement": "solubility at 1 hr", "setting": "[2]; water, 1 hr", "value": 1500, "unit": "µg/mL"}, {"measurement": "solubility at 4 hr", "setting": "[2]; water, 4 hr", "value": 2300, "unit": "µg/mL"}, {"measurement": "solubility at 24 hr", "setting": "[2]; water, 24 hr", "value": 1800, "unit": "µg/mL"}]}
{"molecule": "C[C@H](O)C(=O)C1=Nc2c(nc(N)[nH]c2=O)NC1", "note": "[L-Tartrate]", "values": [{"measurement": "form change during the stability testing", "setting": "[1]", "value": "None"}, {"measurement": "Solubility", "setting": "[2]; [4]", "value": 2000, "unit": "µg/mL"}, {"measurement": "Solubility", "setting": "[2]; [5]", "value": 1600, "unit": "µg/mL"}, {"measurement": "Solubility", "setting": "[2]; [6]", "value": 1800, "unit": "µg/mL"}, {"measurement": "Solubility", "setting": "[2]; [7]", "value": 1800, "unit": "µg/mL"}, {"measurement": "Form change", "setting": "[2]; Medisca Oral Mix, 1 hr, ** = low crystallinity, listed as L-tartrate salt and/or co-crystal", "value": "Yes"}, {"measurement": "Form change", "setting": "[2]; Medisca Oral Mix, 4 hr, ** = low crystallinity, listed as L-tartrate salt and/or co-crystal", "value": "Yes"}, {"measurement": "Form change", "setting": "[2]; Medisca Oral Mix, 24 hr, ** = low crystallinity, listed as L-tartrate salt and/or co-crystal", "value": "Yes"}, {"measurement": "Form change", "setting": "[2]; [5]", "value": "Yes"}, {"measurement": "Form change", "setting": "[2]; [6]", "value": "Yes"}, {"measurement": "Form change", "setting": "[2]; [7]", "value": "Yes"}, {"measurement": "Purity (area %)", "setting": "[2]; [4]", "value": 99.68, "unit": "area %"}, {"measurement": "Purity (area %)", "setting": "[2]; Medisca Oral Mix, 4 hr, listed as L-tartrate salt and/or co-crystal", "value": 99.54, "unit": "area %"}, {"measurement": "Purity (area %)", "setting": "[2]; Medisca Oral Mix, 24 hr, listed as L-tartrate salt and/or co-crystal", "value": 95.67, "unit": "area %"}, {"measurement": "Purity (area %)", "setting": "[2]; [5]", "value": 99.34, "unit": "area %"}, {"measurement": "Purity (area %)", "setting": "[2]; [6]", "value": 99.07, "unit": "area %"}, {"measurement": "Purity (area %)", "setting": "[2]; [7]", "value": 95.61, "unit": "area %"}, {"measurement": "form of residual solids", "setting": "[2]", "value": "converted to freebase"}]}
{"molecule": "C[C@H](O)[C@H](O)[C@H]1CNc2nc(N)[nH]c(=O)c2N1", "note": "[BH4, tetrahydrobiopterin, reference compound]", "values": [{"measurement": "kidney, liver and urine exposure to BH4 versus dose level", "setting": "[3]", "value": "decreased as the dose level increased"}]}
{"molecule": "C[C@H](O)C(=O)C1=Nc2c(nc(N)[nH]c2=O)NC1", "note": "[sepiapterin]", "values": [{"measurement": "kidney, liver and urine exposure to BH4 versus dose level", "setting": "[3]", "value": "decreased as the dose level increased"}, {"measurement": "kidney BH4 Cmax following sepiapterin administration versus BH4 alone", "setting": "[3]; except at the high-dose", "value": "similar"}, {"measurement": "secondary peak of absorption (plasma sepiapterin)", "setting": "[3]; low- and mid-dose levels, post-dose", "value": 8, "unit": "h"}, {"measurement": "sepiapterin exposure amongst the analyzed matrices", "setting": "[3]; plasma, liver, kidney, urine", "value": "highest in urine"}, {"measurement": "dose proportionality of circulating sepiapterin exposure", "setting": "[3]; plasma, entire dose range", "value": "much greater than dose proportional"}, {"measurement": "time of maximum sepiapterin plasma concentrations", "setting": "[3]; post-dose, sepiapterin 20, 60 or 180 mg/kg", "value": "30 minutes or 2 hours"}, {"measurement": "sepiapterin detected in the liver and kidney", "setting": "[3]; sepiapterin 20, 60 or 180 mg/kg", "value": "only at 30 minutes post-dose and only in the liver for the mid- or high-dose"}, {"measurement": "dose proportionality of sepiapterin exposure", "setting": "[3]; urine, liver and kidney, entire dose range", "value": "less than dose proportional"}]}
{"molecule": "C[C@H](O)C(=O)C1=Nc2c(nc(N)[nH]c2=O)NC1", "note": "[Phosphate]", "values": [{"measurement": "form change during the stability testing", "setting": "[1]", "value": "None"}, {"measurement": "Solubility", "setting": "[2]; [8]", "value": 2100, "unit": "µg/mL"}, {"measurement": "Solubility", "setting": "[2]; [9]", "value": 1700, "unit": "µg/mL"}, {"measurement": "Solubility", "setting": "[2]; [10]", "value": 2000, "unit": "µg/mL"}, {"measurement": "Solubility", "setting": "[2]; [11]", "value": 1900, "unit": "µg/mL"}, {"measurement": "Form change", "setting": "[2]; Medisca Oral Mix, 1 hr, ** = low crystallinity, listed as phosphate salt and/or co-crystal", "value": "Yes**"}, {"measurement": "Form change", "setting": "[2]; Medisca Oral Mix, 4 hr, ** = low crystallinity, listed as phosphate salt and/or co-crystal", "value": "Yes**"}, {"measurement": "Form change", "setting": "[2]; Medisca Oral Mix, 24 hr, ** = low crystallinity, listed as phosphate salt and/or co-crystal", "value": "Yes**"}, {"measurement": "Form change", "setting": "[2]; [9]", "value": "Yes"}, {"measurement": "Form change", "setting": "[2]; [10]", "value": "Yes"}, {"measurement": "Form change", "setting": "[2]; [11]", "value": "Yes"}, {"measurement": "Purity (area %)", "setting": "[2]; Medisca Oral Mix, 1 hr, listed as phosphate salt and/or co-crystal", "value": 99.23, "unit": "area %"}, {"measurement": "Purity (area %)", "setting": "[2]; Medisca Oral Mix, 4 hr, listed as phosphate salt and/or co-crystal", "value": 98.95, "unit": "area %"}, {"measurement": "Purity (area %)", "setting": "[2]; [8]", "value": 87.63, "unit": "area %"}, {"measurement": "Purity (area %)", "setting": "[2]; [9]", "value": 89.92, "unit": "area %"}, {"measurement": "Purity (area %)", "setting": "[2]; [10]", "value": 89.52, "unit": "area %"}, {"measurement": "Purity (area %)", "setting": "[2]; [11]", "value": 82.64, "unit": "area %"}, {"measurement": "form of residual solids", "setting": "[2]", "value": "converted to freebase"}]}
